Residues, ends and D or L forms follow the SMILES beside them.
The compounds below were run against IL-17RA/IL17RC dimerization induced by IL-17A (Homo sapiens, UniProt Q16552) (assay: IL-17RA/IL17RC dimerization assay in response to IL-17A (PathHunter Cytokine Receptor Assay)). Conditions: IL-17A at EC80; read-out: IC50 in IL-17RA/IL7RC dimerization assay.
Type: cell-based
In short: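 PathHunter cells with IL-17RA and IL-17RC tagged for β-galactosidase complementation were preincubated 60 min with peptide (1% vehicle). IL-17A was then added at EC80 for 6–16 h at 37 °C, and chemiluminescence was read. Inhibition is relative to the EC80 and vehicle controls.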

Sequence of IL-17RA/IL17RC dimerization induced by IL-17A (Q16552 24-155): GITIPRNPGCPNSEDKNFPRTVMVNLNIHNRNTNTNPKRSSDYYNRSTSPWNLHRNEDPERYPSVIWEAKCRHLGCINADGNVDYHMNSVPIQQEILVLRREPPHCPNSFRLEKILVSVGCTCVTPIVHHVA

| SMILES | IC50 |
| --- | --- |
| CC(=O)N[C@H](C(=O)N[C@@H](Cc1c[nH]cn1)C(=O)N[C@@H](Cc1ccccc1)C(=O)N[C@H](C(=O)N[C@@H](Cc1ccccc1)C(=O)N1CCC[C@H]1C(=O)N[C@@H](CCC(N)=O)C(=O)N[C@@H](CC(=O)O)C(=O)N[C@@H](CC(C)C)C(=O)N[C@@H](Cc1c[nH]c2ccccc12)C(=O)N[C@@H](CCC(=O)O)C(=O)N[C@@H](Cc1c[nH]c2ccccc12)C(=O)N[C@H](C(=O)N[C@@H](CCCNC(=N)N)C(=O)N[C@@H](CCCNC(=N)N)C(N)=O)C(C)C)[C@@H](C)O)C(C)C [SEQ ID NO: 124] (Ac-VHFTFPQDLWEWVRR-NH2) | < 0.5 µM |
| CC[C@H](C)[C@H](NC(=O)[C@@H](NC(=O)[C@@H](NC(=O)[C@H](Cc1c[nH]cn1)NC(=O)[C@@H](NC(C)=O)C(C)C)C(C)C)[C@@H](C)O)C(=O)N1CCC[C@H]1C(=O)N[C@@H](C)C(=O)N[C@@H](CCC(=O)O)C(=O)N[C@@H](Cc1c[nH]c2ccccc12)C(=O)N[C@@H](Cc1c[nH]c2ccccc12)C(=O)N[C@@H](CCC(=O)O)C(=O)N[C@@H](Cc1c[nH]c2ccccc12)C(=O)N[C@H](C(=O)N[C@@H](CCCNC(=N)N)C(=O)N[C@@H](CCCNC(=N)N)C(N)=O)C(C)C [SEQ ID NO: 123] (Ac-VHVTIPAEWWEWVRR-NH2) | < 0.5 µM |
| CC(=O)N[C@H](C(=O)N[C@@H](Cc1c[nH]cn1)C(=O)N[C@@H](Cc1ccccc1)C(=O)N[C@@H](CCC(N)=O)C(=O)N[C@@H](Cc1ccccc1)C(=O)N1CCC[C@H]1C(=O)N[C@@H](CCC(N)=O)C(=O)N[C@@H](CC(=O)O)C(=O)N[C@@H](Cc1c[nH]c2ccccc12)C(=O)N[C@@H](Cc1ccc(O)cc1)C(=O)N[C@@H](CCC(=O)O)C(=O)N[C@@H](Cc1c[nH]c2ccccc12)C(=O)N[C@H](C(=O)N[C@@H](CCCNC(=N)N)C(=O)N[C@@H](CCCNC(=N)N)C(N)=O)C(C)C)C(C)C [SEQ ID NO: 138] (Ac-VHFQFPQDWYEWVRR-NH2) | < 0.5 µM |
| CC(=O)N[C@H](C(=O)N[C@@H](Cc1c[nH]cn1)C(=O)N[C@@H](Cc1ccccc1)C(=O)N[C@H](C(=O)N[C@@H](Cc1ccccc1)C(=O)N1CCC[C@H]1C(=O)N[C@@H](CCC(N)=O)C(=O)N[C@@H](CC(=O)O)C(=O)N[C@@H](CC(C)C)C(=O)N[C@@H](Cc1c[nH]c2ccccc12)C(=O)N[C@@H](CCC(=O)O)C(=O)N[C@@H](Cc1c[nH]c2ccccc12)C(=O)N[C@@H](Cc1ccccc1)C(=O)N[C@@H](CCCNC(=N)N)C(=O)N[C@@H](CCCNC(=N)N)C(N)=O)[C@@H](C)O)C(C)C [SEQ ID NO: 129] (Ac-VHFTFPQDLWEWFRR-NH2) | < 0.5 µM |
| CC(=O)N[C@H](C(=O)N[C@@H](Cc1c[nH]cn1)C(=O)N[C@H](C(=O)N[C@H](C(=O)N[C@@H](Cc1ccccc1)C(=O)N1CCC[C@H]1C(=O)N[C@@H](C)C(=O)N[C@@H](CC(=O)O)C(=O)N[C@@H](CC(C)C)C(=O)N[C@@H](Cc1c[nH]c2ccccc12)C(=O)N[C@@H](CCC(=O)O)C(=O)N[C@@H](Cc1c[nH]c2ccccc12)C(=O)N[C@@H](Cc1ccccc1)C(=O)N[C@@H](CCCNC(=N)N)C(=O)N[C@@H](CCCNC(=N)N)C(N)=O)[C@@H](C)O)C(C)C)C(C)C [SEQ ID NO: 144] (Ac-VHVTFPADLWEWFRR-NH2) | < 0.5 µM |
| CC[C@H](C)[C@H](NC(C)=O)C(=O)N[C@@H](CCC(=O)O)C(=O)N[C@H](C(=O)N[C@H](C(=O)N[C@H](C(=O)N1CCC[C@H]1C(=O)N[C@@H](C)C(=O)N[C@@H](CC(=O)O)C(=O)N[C@@H](CC(C)C)C(=O)N[C@@H](Cc1c[nH]c2ccccc12)C(=O)N[C@@H](CC(=O)O)C(=O)N[C@@H](Cc1c[nH]c2ccccc12)C(=O)N[C@H](C(=O)N[C@@H](CC(N)=O)C(=O)N[C@@H](CCCCN)C(N)=O)[C@@H](C)CC)[C@@H](C)CC)[C@@H](C)O)C(C)C [SEQ ID NO: 164] (Ac-IEVTIPADLWDWINK-NH2) | < 10 µM |
| CC[C@H](C)[C@H](NC(=O)[C@@H](NC(=O)[C@@H](NC(=O)[C@H](Cc1c[nH]cn1)NC(=O)[C@@H](NC(C)=O)C(C)C)C(C)C)[C@@H](C)O)C(=O)N1CCC[C@H]1C(=O)N[C@@H](CCC(N)=O)C(=O)N[C@@H](CC(=O)O)C(=O)N[C@@H](Cc1ccccc1)C(=O)N[C@@H](Cc1c[nH]c2ccccc12)C(=O)N[C@@H](CCC(=O)O)C(=O)N[C@@H](Cc1c[nH]c2ccccc12)C(=O)N[C@@H](Cc1ccccc1)C(=O)N[C@@H](CCCNC(=N)N)C(=O)N[C@@H](CCCNC(=N)N)C(N)=O [SEQ ID NO: 145] (Ac-VHVTIPQDFWEWFRR-NH2) | < 0.5 µM |
| CC[C@H](C)[C@H](NC(=O)[C@@H](NC(=O)[C@H](Cc1ccccc1)NC(=O)[C@H](Cc1c[nH]cn1)NC(=O)[C@@H](NC(C)=O)C(C)C)[C@@H](C)O)C(=O)N1CCC[C@H]1C(=O)N[C@@H](CCC(N)=O)C(=O)N[C@@H](CC(=O)O)C(=O)N[C@@H](Cc1c[nH]c2ccccc12)C(=O)N[C@@H](Cc1c[nH]c2ccccc12)C(=O)N[C@@H](CCC(=O)O)C(=O)N[C@@H](Cc1c[nH]c2ccccc12)C(=O)N[C@H](C(=O)N[C@@H](CCCNC(=N)N)C(=O)N[C@@H](CCCNC(=N)N)C(N)=O)C(C)C [SEQ ID NO: 146] (Ac-VHFTIPQDWWEWVRR-NH2) | < 0.5 µM |

Second part, the compound after the results:

| IC50 | SMILES |
| --- | --- |
| < 10 µM | CC[C@H](C)[C@H](NC(=O)[C@H](Cc1c[nH]c2ccccc12)NC(=O)[C@H](CC(=O)O)NC(=O)[C@H](Cc1c[nH]c2ccccc12)NC(=O)[C@H](CC(C)C)NC(=O)[C@H](CC(=O)O)NC(=O)[C@H](C)NC(=O)[C@@H]1CCCN1C(=O)[C@@H](NC(=O)[C@H](CO)NC(=O)[C@@H](NC(=O)[C@H](CCCCN)NC(=O)[C@@H](NC(C)=O)C(C)C)[C@@H](C)CC)C(C)C)C(=O)N[C@@H](CC(N)=O)C(=O)N[C@@H](CCCCN)C(N)=O [SEQ ID NO: 239] (Ac-VKISVPADLWDWINK-NH2) |
| < 10 µM | CC[C@H](C)[C@H](NC(C)=O)C(=O)N[C@@H](Cc1c[nH]cn1)C(=O)N[C@H](C(=O)N[C@H](C(=O)N[C@H](C(=O)N1CCC[C@H]1C(=O)N[C@@H](C)C(=O)N[C@@H](CC(=O)O)C(=O)N[C@@H](CC(C)C)C(=O)N[C@@H](Cc1c[nH]c2ccccc12)C(=O)N[C@@H](CC(=O)O)C(=O)N[C@@H](Cc1c[nH]c2ccccc12)C(=O)N[C@H](C(=O)N[C@@H](CC(N)=O)C(=O)N[C@@H](CC(=O)O)C(N)=O)[C@@H](C)CC)[C@@H](C)CC)[C@@H](C)O)C(C)C [SEQ ID NO: 223] (Ac-IHVTIPADLWDWIND-NH2) |
| < 10 µM | CC(=O)N[C@H](C(=O)N[C@@H](CCC(=O)O)C(=O)N[C@@H](Cc1ccccc1)C(=O)N[C@@H](CC(N)=O)C(=O)N[C@@H](Cc1ccccc1)C(=O)N1CCC[C@H]1C(=O)N[C@@H](CCC(N)=O)C(=O)N[C@@H](CCC(N)=O)C(=O)N[C@H](C(=O)N[C@@H](Cc1ccc(O)cc1)C(=O)N[C@@H](CCC(=O)O)C(=O)N[C@@H](Cc1c[nH]c2ccccc12)C(=O)N[C@@H](Cc1ccccc1)C(=O)N[C@@H](CC(=O)O)C(=O)N[C@@H](CC(=O)O)C(N)=O)C(C)C)C(C)C [SEQ ID NO: 255] (Ac-VEFNFPQQVYEWFDD-NH2) |
| < 10 µM | CC[C@H](C)[C@H](NC(C)=O)C(=O)N[C@@H](Cc1c[nH]cn1)C(=O)N[C@H](C(=O)N[C@@H](Cc1ccc(O)cc1)C(=O)N[C@H](C(=O)N1CCC[C@H]1C(=O)N[C@@H](C)C(=O)N[C@@H](CC(=O)O)C(=O)N[C@@H](CC(C)C)C(=O)N[C@@H](Cc1c[nH]c2ccccc12)C(=O)N[C@@H](CC(=O)O)C(=O)N[C@@H](Cc1c[nH]c2ccccc12)C(=O)N[C@H](C(=O)N[C@@H](CC(N)=O)C(=O)N[C@@H](CCCCN)C(N)=O)[C@@H](C)CC)[C@@H](C)CC)C(C)C [SEQ ID NO: 176] (Ac-IHVYIPADLWDWINK-NH2) |
| < 10 µM | CC(=O)N[C@H](C(=O)N[C@@H](CCC(=O)O)C(=O)N[C@@H](Cc1ccccc1)C(=O)N[C@@H](CC(N)=O)C(=O)N[C@@H](Cc1ccccc1)C(=O)N1CCC[C@H]1C(=O)N[C@@H](CCC(N)=O)C(=O)N[C@@H](CCC(N)=O)C(=O)N[C@H](C(=O)N[C@@H](Cc1ccc(O)cc1)C(=O)N[C@@H](CCC(=O)O)C(=O)N[C@@H](Cc1c[nH]c2ccccc12)C(=O)N[C@H](C(=O)N[C@@H](CCCNC(=N)N)C(=O)N[C@@H](CCCNC(=N)N)C(N)=O)C(C)C)C(C)C)C(C)C [SEQ ID NO: 256] (Ac-VEFNFPQQVYEWVRR-NH2) |
| < 10 µM | CC[C@H](C)[C@H](NC(C)=O)C(=O)N[C@@H](Cc1c[nH]cn1)C(=O)N[C@H](C(=O)N[C@H](C(=O)N[C@@H](Cc1ccc(O)cc1)C(=O)N1CCC[C@H]1C(=O)N[C@@H](C)C(=O)N[C@@H](CC(=O)O)C(=O)N[C@@H](CC(C)C)C(=O)N[C@@H](Cc1c[nH]c2ccccc12)C(=O)N[C@@H](CC(=O)O)C(=O)N[C@@H](Cc1c[nH]c2ccccc12)C(=O)N[C@H](C(=O)N[C@@H](CC(N)=O)C(=O)N[C@@H](CCCCN)C(N)=O)[C@@H](C)CC)[C@@H](C)O)C(C)C [SEQ ID NO: 185] (Ac-IHVTYPADLWDWINK-NH2) |
| < 10 µM | CC[C@H](C)[C@H](NC(=O)[C@H](CCC(=O)O)NC(=O)[C@H](CC(C)C)NC(=O)[C@@H]1CCCN1C(=O)[C@@H](NC(=O)[C@H](CO)NC(=O)[C@@H](NC(=O)[C@H](CCCNC(=N)N)NC(=O)[C@H](CC(C)C)NC(C)=O)[C@@H](C)CC)C(C)C)C(=O)N[C@@H](Cc1ccccc1)C(=O)N[C@@H](CCC(=O)O)C(=O)N[C@@H](Cc1c[nH]c2ccccc12)C(=O)N[C@@H](CC(C)C)C(=O)N[C@@H](CCC(N)=O)C(=O)N[C@@H](Cc1c[nH]cn1)C(N)=O [SEQ ID NO: 252] (Ac-LRISVPLEIFEWLQH-NH2) |
| < 10 µM | CC[C@H](C)[C@H](NC(C)=O)C(=O)N[C@@H](Cc1c[nH]cn1)C(=O)N[C@H](C(=O)N[C@H](C(=O)N[C@H](C(=O)N1CCC[C@H]1C(=O)N[C@@H](C)C(=O)N[C@@H](CC(=O)O)C(=O)N[C@@H](CC(C)C)C(=O)N[C@@H](Cc1c[nH]c2ccccc12)C(=O)N[C@@H](CC(=O)O)C(=O)N[C@@H](Cc1c[nH]cn1)C(=O)N[C@H](C(=O)N[C@@H](CC(N)=O)C(=O)N[C@@H](CCCCN)C(N)=O)[C@@H](C)CC)[C@@H](C)CC)[C@@H](C)O)C(C)C [SEQ ID NO: 209] (Ac-IHVTIPADLWDHINK-NH2) |
